# Test results from patent publication US20250179059A1 (The Regents of the University of California, priority 2021, published 2025).
# Read-outs that look alike come from different tables or passages of the source.
# How the values were obtained:
# [1] = test system: human SKM-1 acute myeloid leukemia cells; test: SKM-1 antiproliferation cell-based assay (ATPlite); details: Homo sapiens
# In short: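 Log-phase cells in RPMI 1640/15% FBS were seeded at 34722 cells/mL and exposed for 4 days to nine-concentration DMSO serial dilutions in triplicate. Viability was read as ATP luminescence (ATPlite 1step), and IC50 values came from variable-slope non-linear regression.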
# [2] = target: T1, human BRD4 bromodomain II (Homo sapiens, UniProt O60885); test: Bromodomain binding assay (AlphaScreen), BRD4 BDII
# T1 construct: human BRD4 bromodomain II [based on Genbank NM_058243, residues 349-460]; host or cells: E. coli
# In short: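 Read-out is AlphaScreen signal (ex 680 nm, em 520-620 nm) from streptavidin donor beads on a biotinylated acetylated histone H4 (aa 1-21) peptide and nickel acceptor beads on the His6-tagged bromodomain. IC50 values come from curve fits of percentage peptide binding against compound concentration.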
# [3] = SKM-1, 96 h, SKM-1 antiproliferation assay, 4 days, Table C2
# [4] = AlphaScreen assay, Table C2, read-out: BRD4 BDII IC50
# [5] = SKM-1, SKM-1 antiproliferation assay
# [6] = BRD4 BDII AlphaScreen assay, read-out: BRD4 BD2 IC50
SMILES,"GI50 [1, 3]","IC50 [2, 4]","GI50 [1, 5]","IC50 [2, 6]"
"CN1CCN(c2ccc(-c3cc(F)cc(-c4ccnc(N5CCNC5=O)c4)c3O)cc2Cl)C1=O [Example 354, 1-(3-chloro-5′-fluoro-2′-hydroxy-3′-(2-(2-oxoimidazolidin-1-yl)pyridin-4-yl)-[1,1′-biphenyl]-4-yl)-3-methylimidazolidin-2-one]",≥ 3000 nM,> 100 nM,,
Cc1ncc(-c2cc(F)cc(-c3ccc(-n4ccn(C)c4=O)c(Cl)c3)c2O)cc1N1CCC2(CCN2C(C)C)C1 (centres unmarked) [Example 891],,,0.3 to 30 nM,1 to 10 nM
"O=c1[nH]c2ccc(-c3cc(F)cc(-c4ccnc(N5CCNCC5)c4)c3O)cc2[nH]1 [Example 431, 5-(5-fluoro-2-hydroxy-3-(2-(piperazin-1-yl)pyridin-4-yl)phenyl)-1H-benzo[d]imidazol-2(3H)-one]",≥ 3000 nM,> 100 nM,,
"CN1CCN(c2ccc(-c3cc(F)cc(-c4ccnc(N5CCC[C@H](N)C5)c4)c3O)cc2Cl)C1=O [Example 360, (S)-1-(3′-(2-(3-aminopiperidin-1-yl)pyridin-4-yl)-3-chloro-5′-fluoro-2′-hydroxy-[1,1′-biphenyl]-4-yl)-3-methylimidazolidin-2-one]",30 to 300 nM,1 to 10 nM,,
"Cn1ccn(-c2ccc(-c3cc(F)cc(-c4ccnc(N5CCC(N6CCC(F)CC6)C5)c4)c3O)cc2Cl)c1=O (centres unmarked) [Example 701, 1-(3-chloro-5′-fluoro-3′-(2-(3-(4-fluoropiperidin-1-yl)pyrrolidin-1-yl)pyridin-4-yl)-2′-hydroxy-[1,1′-biphenyl]-4-yl)-3-methyl-1H-imidazol-2(3H)-one]",30 to 300 nM,0.01 to 1 nM,,
"CN1CCN(c2ccc(-c3cc(F)cc(-c4ncc(N5CCOCC5)cc4N4CCNCC4)c3O)cc2Cl)C1=O [Example 416, 1-(3-chloro-5′-fluoro-2′-hydroxy-3′-(5-morpholino-3-(piperazin-1-yl)pyridin-2-yl)-[1,1′-biphenyl]-4-yl)-3-methylimidazolidin-2-on]",≥ 3000 nM,10 to 100 nM,,
"[2H]C([2H])([2H])Oc1ncc(-c2cc(F)cc(-c3ccc(-n4ccn(C)c4=O)c(Cl)c3)c2O)cc1N1CCN(C(C)(C)C)CC1 [Example 926, 1-(3′-(5-(4-(tert-Butyl)piperazin-1-yl)-6-(methoxy-d3)pyridin-3-yl)-3-chloro-5′-fluoro-2′-hydroxy-[1,1′-biphenyl]-4-yl)-3-methyl-1,3-dihydro-2H-imidazol-2-one]",,,0.3 to 30 nM,0.01 to 1 nM
Cc1ncc(-c2cc(F)cc(-c3ccc(-n4ccn(C)c4=O)c(Cl)c3)c2O)cc1N1CC(C)(C)[C@@](C)(O)C1 [Example 885],,,30 to 300 nM,1 to 10 nM
"Cc1cc(-c2cc(F)cc(-c3cccc(N4CCN(C(C)(C)C)CC4)c3)c2O)cc(Cl)c1-n1ccn(C)c1=O [Example 927, 1-(3″-(4-(tert-butyl)piperazin-1-yl)-3-chloro-5′-fluoro-2′-hydroxy-5-methyl-[1,1′:3′,1″-terphenyl]-4-yl)-3-methyl-1H-imidazol-2(3H)-one]",,,30 to 300 nM,10 to 100 nM
"Cc1cc(-c2cccc(N3CCN(C(C)(C)C)CC3)c2)c(O)c(-c2ccc(-n3ccn(C)c3=O)c(Cl)c2)c1 [Example 1016, 1-(3″-(4-(tert-butyl)piperazin-1-yl)-3-chloro-2′-hydroxy-5′-methyl-[1,1′:3′,1″-terphenyl]-4-yl)-3-methyl-1H-imidazol-2(3H)-one]",,,0.3 to 30 nM,0.01 to 1 nM
"CN1CCN(c2ccc(-c3cc(F)cc(-c4ccnc(N5CCNCC5=O)c4)c3O)cc2Cl)C1=O [Example 449, 1-(4-(3′-chloro-5-fluoro-2-hydroxy-4′-(3-methyl-2-oxoimidazolidin-1-yl)-[1,1′-biphenyl]-3-yl)pyridin-2-yl)piperazin-2-one]",300 to 3000 nM,1 to 10 nM,,
COc1ncc(-c2cc(F)cc(-c3ccc(-n4ccn(C)c4=O)c(Cl)c3)c2O)cc1N1CC(C)(C)[C@@](C)(O)C1 [Example 872],,,30 to 300 nM,0.01 to 1 nM
"CC(=O)Nc1ccc(-c2cccc(-c3ccnc(N4CC[C@H](N)C4)c3)c2O)cc1F [Example 248, (S)-N-(3′-(2-(3-aminopyrrolidin-1-yl)pyridin-4-yl)-3-fluoro-2′-hydroxy-[1,1′-biphenyl]-4-yl)acetamide]",30 to 300 nM,1 to 10 nM,,
"O=C1NCCCN1c1ccc(-c2cc(F)cc(-c3ccnc(N4CCNCC4)c3)c2O)cc1Cl [Example 287, 1-(3-chloro-5′-fluoro-2′-hydroxy-3′-(2-(piperazin-1-yl)pyridin-4-yl)-[1,1′-biphenyl]-4-yl)tetrahydropyrimidin-2(1H)-one]",300 to 3000 nM,> 100 nM,,

# More lines, now with the values ahead:
"GI50 [1, 3]","IC50 [2, 4]","GI50 [1, 5]","IC50 [2, 6]",SMILES
30 to 300 nM,0.01 to 1 nM,,,"Cn1ccn(-c2ccc(-c3cc(F)cc(-c4ccnc(N5CCC6(CCO6)C5)c4)c3O)cc2Cl)c1=O (centres unmarked) [Example 674, 1-(3′-(2-(1-oxa-6-azaspiro[3.4]octan-6-yl)pyridin-4-yl)-3-chloro-5′-fluoro-2′-hydroxy-[1,1′-biphenyl]-4-yl)-3-methyl-1H-imidazol-2(3H)-one]"
0.3 to 30 nM,1 to 10 nM,,,"CN1CC2(C1)CN(c1cncc(-c3cc(F)cc(-c4ccc(-n5ccn(C)c5=O)c(Cl)c4)c3O)c1)C2 [Example 488, 1-(3-chloro-5′-fluoro-2′-hydroxy-3′-(5-(6-methyl-2,6-diazaspiro[3.3]heptan-2-yl)pyridin-3-yl)-[1,1′-biphenyl]-4-yl)-3-methyl-1H-imidazol-2(3H)-one]"
30 to 300 nM,1 to 10 nM,,,"C[C@@H]1CN(c2cc(-c3cc(F)cc(-c4ccc(N5CCN(C)C5=O)c(Cl)c4)c3O)cn(C)c2=O)CCN1 [Example 377, (R)-5-(3′-chloro-5-fluoro-2-hydroxy-4′-(3-methyl-2-oxoimidazolidin-1-yl)-[1,1′-biphenyl]-3-yl)-1-methyl-3-(3-methylpiperazin-1-yl)pyridin-2(1H)-one]"
0.3 to 30 nM,1 to 10 nM,,,"Cn1ccn(-c2ccc(-c3cc(F)cc(-c4cc(N5CCNCC5)c5nc[nH]c5c4)c3O)cc2Cl)c1=O [Example 504, 1-(3-chloro-5′-fluoro-2′-hydroxy-3′-(4-(piperazin-1-yl)-1H-benzo[d]imidazol-6-yl)-[1,1′-biphenyl]-4-yl)-3-methyl-1H-imidazol-2(3H)-one]"
0.3 to 30 nM,0.01 to 1 nM,,,Cn1ccn(-c2ccc(-c3cc(F)cc(-c4cc(-c5ccn[nH]5)cc(N5CCNCC5)c4)c3O)cc2Cl)c1=O [Example 568]
30 to 300 nM,1 to 10 nM,,,"CN1CCN(c2ccc(-c3cc(F)cc(-c4cc(N5CCNCC5)c(=O)n(C)c4)c3O)cc2Cl)C1=O [Example 372, 5-(3′-chloro-5-fluoro-2-hydroxy-4′-(3-methyl-2-oxoimidazolidin-1-yl)-[1,1′-biphenyl]-3-yl)-1-methyl-3-(piperazin-1-yl)pyridin-2(1H)-one]"
30 to 300 nM,0.01 to 1 nM,,,"CO[C@H]1CCN(c2cc(-c3cc(F)cc(-c4ccc(-n5ccn(C)c5=O)c(Cl)c4)c3O)ccn2)C1 [Example 691, (S)-1-(3-chloro-5′-fluoro-2′-hydroxy-3′-(2-(3-methoxypyrrolidin-1-yl)pyridin-4-yl)-[1,1′-biphenyl]-4-yl)-3-methyl-1H-imidazol-2(3H)-one]"
30 to 300 nM,1 to 10 nM,,,"CC(=O)Nc1ccc(-c2cc(F)cc(-c3ccnc(N4CCNCC4)c3)c2O)cc1F [Example 224, N-(3,5′-difluoro-2′-hydroxy-3′-(2-(piperazin-1-yl)pyridin-4-yl)-[1,1′-biphenyl]-4-yl)acetamide]"
0.3 to 30 nM,1 to 10 nM,,,"Cn1ccn(-c2ccc(-c3cc(F)cc(-c4cc(N5CCNCC5)c5nn[nH]c5c4)c3O)cc2Cl)c1=O [Example 535, 1-(3-chloro-5′-fluoro-2′-hydroxy-3′-(4-(piperazin-1-yl)-1H-benzo[d][1,2,3]triazol-6-yl)-[1,1′-biphenyl]-4-yl)-3-methyl-1H-imidazol-2(3H)-one]"
30 to 300 nM,1 to 10 nM,,,"CN[C@H]1CCN(c2cc(-c3cc(F)cc(-c4ccc(N5CCN(C)C5=O)c(Cl)c4)c3O)ccn2)C1 [Example 438, (S)-1-(3-chloro-5′-fluoro-2′-hydroxy-3′-(2-(3-(methylamino)pyrrolidin-1-yl)pyridin-4-yl)-[1,1′-biphenyl]-4-yl)-3-methylimidazolidin-2-one]"
30 to 300 nM,1 to 10 nM,,,CC(=O)Nc1ccc(-c2cccc(-c3cncc(N4CCN[C@H](C)C4)c3)c2O)cc1F [Example 258]
0.3 to 30 nM,0.01 to 1 nM,,,"Cn1ccn(-c2ccc(-c3cc(F)cc(-c4cccc(N5CCN(C(C)(C)C)CC5)c4)c3O)cc2Cl)c1=O [Example 734, 1-(3″-(4-(tert-butyl)piperazin-1-yl)-3-chloro-5′-fluoro-2′-hydroxy-[1,1′:3′,1″-terphenyl]-4-yl)-3-methyl-1H-imidazol-2(3H)-one]"
0.3 to 30 nM,0.01 to 1 nM,,,Cc1cc(-c2ccc(-n3ccn(C)c3=O)c(Cl)c2)c(O)c(-c2cc(N3CCN[C@H](C)C3)c3nccnc3c2)c1 [Example 574]
0.3 to 30 nM,1 to 10 nM,,,"COCC(C)(C)N1CCN(c2cccc(-c3cc(F)cc(-c4ccc(-n5ccn(C)c5=O)c(Cl)c4)c3O)c2)CC1 [Example 830, 1-(3-chloro-5′-fluoro-2′-hydroxy-3″-(4-(1-methoxy-2-methylpropan-2-yl)piperazin-1-yl)-[1,1′:3′,1″-terphenyl]-4-yl)-3-methyl-1H-imidazol-2(3H)-one]"
